Source: paper PMC7041945, “Misfolded proteins bind and activate death receptor 5 to trigger apoptosis during unresolved endoplasmic reticulum stress” (eLife, 2020)

Columns and labels:
[1] = test system: CHOP, BiP, and DR5 mRNA in HCT116 cells; experiment: qPCR of UPR target transcripts (CHOP, BiP, DR5); assay type: cell-based, Homo sapiens; conditions: for avg. fold induction CHOP / avg. fold induction DR5 total / fold induction CHOP / fold induction DR5 total / 2^-(deltaCq) CHOP / 2^-(deltaCq) DR5 total / Cq CHOP / Cq DR5 total / Cq(sample) - avg Cq(GAPDH), CHOP / Cq(sample) - avg Cq(GAPDH), DR5 total: Rep 2; for avg. fold induction CHOP / avg. fold induction DR5 total / fold induction CHOP / fold induction DR5 total: relative to empty traffo; for avg. fold induction CHOP / avg. fold induction DR5 total: mean of 3 replicates
Protocol: Cells were grown in 6-well plates and harvested with 0.5 ml of TRIzol reagent (Life Technologies) per manufacturer’s protocol to extract RNA. For cDNA synthesis, 500 ng of total RNA was reverse transcribed with 2 μl of the SuperScript VILO master mix (Life Technologies # 11755050) in a total reaction volume of 10 μl following the manufacturer’s protocol for reaction temperature and duration. The reverse transcription product was diluted to 200 μl with 10 mM Tris-HCl pH 8.2 and used at 1:100 dilution for subsequent RT-PCR reactions.
PCR samples were prepared as described by manufacturer’s protocols from iQ SYBR Green Supermix (BioRad #17088800).
For each experiment, qRT-PCR reactions were set up in triplicate and run using a CFX96 Real Time System (Bio-Rad). Quantitation cycles were determined with CFX Manager 3.0 software (Bio-Rad) and then normalized to GAPDH as an internal control.

GAPDH = experiment: qPCR of GAPDH (reference transcript); assay type: cell-based; conditions: Rep 2; for avg. fold induction GAPDH / fold induction GAPDH: relative to empty traffo
[2] = Compiled Reps INS RHO, average of 6 reps

## INS-GFP: GFP-tagged proinsulin expressed from plasmid
[1]; 3 hr
  avg. fold induction CHOP: 2.592
  avg. fold induction DR5 total: 0.7038
[1]; 3 hr, replicate 1
  fold induction CHOP: 2.854
  fold induction DR5 total: 0.6229
  2^-(deltaCq) CHOP: 0.03284
  2^-(deltaCq) DR5 total: 0.01816
  Cq CHOP: 24.0903
  Cq DR5 total: 24.9448
  Cq(sample) - avg Cq(GAPDH), CHOP: 4.928
  Cq(sample) - avg Cq(GAPDH), DR5 total: 5.783
[1]; 3 hr, replicate 2
  fold induction CHOP: 2.329
  fold induction DR5 total: 0.8572
  2^-(deltaCq) CHOP: 0.0268
  2^-(deltaCq) DR5 total: 0.02499
  Cq CHOP: 24.3837
  Cq DR5 total: 24.4842
  Cq(sample) - avg Cq(GAPDH), CHOP: 5.2218
  Cq(sample) - avg Cq(GAPDH), DR5 total: 5.322
[1]; 3 hr, replicate 3
  fold induction CHOP: 2.592
  fold induction DR5 total: 0.6314
  2^-(deltaCq) CHOP: 0.02982
  2^-(deltaCq) DR5 total: 0.01841
  Cq CHOP: 24.2295
  Cq DR5 total: 24.9253
  Cq(sample) - avg Cq(GAPDH), CHOP: 5.068
  Cq(sample) - avg Cq(GAPDH), DR5 total: 5.763
[1]; 7 hr
  avg. fold induction CHOP: 6.389
  avg. fold induction DR5 total: 1.383
[1]; 7 hr, replicate 1
  fold induction CHOP: 6.347
  fold induction DR5 total: 1.604
  2^-(deltaCq) CHOP: 0.07302
  2^-(deltaCq) DR5 total: 0.04677
  Cq CHOP: 23.0759
  Cq DR5 total: 23.7188
  Cq(sample) - avg Cq(GAPDH), CHOP: 3.776
  Cq(sample) - avg Cq(GAPDH), DR5 total: 4.418
[1]; 7 hr, replicate 2
  fold induction CHOP: 6.646
  fold induction DR5 total: 1.272
  2^-(deltaCq) CHOP: 0.07646
  2^-(deltaCq) DR5 total: 0.03708
  Cq CHOP: 23.0096
  Cq DR5 total: 24.0535
  Cq(sample) - avg Cq(GAPDH), CHOP: 3.709
  Cq(sample) - avg Cq(GAPDH), DR5 total: 4.753
[1]; 7 hr, replicate 3
  fold induction CHOP: 6.175
  fold induction DR5 total: 1.275
  2^-(deltaCq) CHOP: 0.07103
  2^-(deltaCq) DR5 total: 0.03717
  Cq CHOP: 23.1157
  Cq DR5 total: 24.0502
  Cq(sample) - avg Cq(GAPDH), CHOP: 3.815
  Cq(sample) - avg Cq(GAPDH), DR5 total: 4.75
[1]; 24 hr
  avg. fold induction CHOP: 5.115
  avg. fold induction DR5 total: 1.535
[1]; 24 hr, replicate 1
  fold induction CHOP: 6.073
  fold induction DR5 total: 1.494
  2^-(deltaCq) CHOP: 0.06987
  2^-(deltaCq) DR5 total: 0.04358
  Cq CHOP: 23.5439
  Cq DR5 total: 24.225
  Cq(sample) - avg Cq(GAPDH), CHOP: 3.839
  Cq(sample) - avg Cq(GAPDH), DR5 total: 4.52
[1]; 24 hr, replicate 2
  fold induction CHOP: 4.514
  fold induction DR5 total: 1.718
  2^-(deltaCq) CHOP: 0.05193
  2^-(deltaCq) DR5 total: 0.05009
  Cq CHOP: 23.972
  Cq DR5 total: 24.0239
  Cq(sample) - avg Cq(GAPDH), CHOP: 4.267
  Cq(sample) - avg Cq(GAPDH), DR5 total: 4.319
[1]; 24 hr, replicate 3
  fold induction CHOP: 4.759
  fold induction DR5 total: 1.392
  2^-(deltaCq) CHOP: 0.05475
  2^-(deltaCq) DR5 total: 0.04058
  Cq CHOP: 23.8955
  Cq DR5 total: 24.3278
  Cq(sample) - avg Cq(GAPDH), CHOP: 4.191
  Cq(sample) - avg Cq(GAPDH), DR5 total: 4.623
[1]; Compiled Reps INS RHO, average of 3 reps
  BiP avg fold change relative to empty: 1.818
[1]; [2]
  CHOP avg fold change relative to empty: 4.114
  DR5 avg fold change relative to empty: 1.533
  GAPDH avg fold change relative to empty: 1.006
  GFP construct avg fold change relative to empty: 92.5691
[1]; Compiled Reps INS RHO, rep 1
  BiP fold change relative to empty: 1.621
  CHOP fold change relative to empty: 3.15
  DR5 fold change relative to empty: 1.705
  GAPDH fold change relative to empty: 0.8468
  GFP construct fold change relative to empty: 79.1961
[1]; Compiled Reps INS RHO, rep 2
  BiP fold change relative to empty: 1.965
  CHOP fold change relative to empty: 3.503
  DR5 fold change relative to empty: 1.533
  GAPDH fold change relative to empty: 1.093
  GFP construct fold change relative to empty: 73.666
[1]; Compiled Reps INS RHO, rep 3
  BiP fold change relative to empty: 1.867
  CHOP fold change relative to empty: 2.685
  DR5 fold change relative to empty: 1.358
  GAPDH fold change relative to empty: 1.081
  GFP construct fold change relative to empty: 131.33
[1]; Compiled Reps INS RHO, rep 4
  CHOP fold change relative to empty: 6.073
  DR5 fold change relative to empty: 1.494
  GAPDH fold change relative to empty: 0.8281
  GFP construct fold change relative to empty: 82.5431
[1]; Compiled Reps INS RHO, rep 5
  CHOP fold change relative to empty: 4.514
  DR5 fold change relative to empty: 1.718
  GAPDH fold change relative to empty: 1.042
  GFP construct fold change relative to empty: 92.9155
[1]; Compiled Reps INS RHO, rep 6
  CHOP fold change relative to empty: 4.759
  DR5 fold change relative to empty: 1.392
  GAPDH fold change relative to empty: 1.149
  GFP construct fold change relative to empty: 95.7639
[1]; HCT116, transfected 24 hr
  UPR target gene transcription: upregulated BiP and CHOP mRNAs
GAPDH; 3 hr, mean of 3 replicates
  Cq GAPDH: 19.1619
  avg. fold induction GAPDH: 1
GAPDH; 3 hr, replicate 1
  fold induction GAPDH: 0.8888
  2^-(deltaCq) GAPDH: 0.8916
  Cq GAPDH: 19.3274
  Cq(sample) - avg Cq(GAPDH), GAPDH: 0.1655
GAPDH; 3 hr, replicate 2
  fold induction GAPDH: 1.06
  2^-(deltaCq) GAPDH: 1.064
  Cq GAPDH: 19.0729
  Cq(sample) - avg Cq(GAPDH), GAPDH: -0.08892
GAPDH; 3 hr, replicate 3
  fold induction GAPDH: 1.051
  2^-(deltaCq) GAPDH: 1.055
  Cq GAPDH: 19.0852
  Cq(sample) - avg Cq(GAPDH), GAPDH: -0.07662
GAPDH; 7 hr, mean of 3 replicates
  Cq GAPDH: 19.3003
  avg. fold induction GAPDH: 1.004
GAPDH; 7 hr, replicate 1
  fold induction GAPDH: 0.8393
  2^-(deltaCq) GAPDH: 0.842
  Cq GAPDH: 19.5485
  Cq(sample) - avg Cq(GAPDH), GAPDH: 0.2482
GAPDH; 7 hr, replicate 2
  fold induction GAPDH: 1.091
  2^-(deltaCq) GAPDH: 1.094
  Cq GAPDH: 19.1708
  Cq(sample) - avg Cq(GAPDH), GAPDH: -0.1295
GAPDH; 7 hr, replicate 3
  fold induction GAPDH: 1.082
  2^-(deltaCq) GAPDH: 1.086
  Cq GAPDH: 19.1817
  Cq(sample) - avg Cq(GAPDH), GAPDH: -0.1186
GAPDH; 24 hr, mean of 3 replicates
  Cq GAPDH: 19.7046
  avg. fold induction GAPDH: 1.006
GAPDH; 24 hr, replicate 1
  fold induction GAPDH: 0.8281
  2^-(deltaCq) GAPDH: 0.8307
  Cq GAPDH: 19.9722
  Cq(sample) - avg Cq(GAPDH), GAPDH: 0.2676
GAPDH; 24 hr, replicate 2
  fold induction GAPDH: 1.042
  2^-(deltaCq) GAPDH: 1.045
  Cq GAPDH: 19.6413
  Cq(sample) - avg Cq(GAPDH), GAPDH: -0.06334
GAPDH; 24 hr, replicate 3
  fold induction GAPDH: 1.149
  2^-(deltaCq) GAPDH: 1.1521
  Cq GAPDH: 19.5004
  Cq(sample) - avg Cq(GAPDH), GAPDH: -0.2043
